The values that follow come from US20260008758A1, “LINEAR DIPEPTIDYL PEPTIDASE 1 INHIBITORS AND USES THEREOF” (Insmed Incorporated, priority 2024, published 2026).

The structures appear in SMILES notation.

One assay concerns the target DPP1 in HL-60 cells (Homo sapiens (Human), UniProt P53634). Description: DPP1 Cell IC50 assay. The format is cell-based. The conditions noted are these: H-Gly-Phe-AFC substrate, 60 min pre-incubation. Put shortly:
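HL-60 cells (5×10^5 live cells/mL in PBS) were pre-incubated with compound in 0.5% DMSO for 60 min at 37 °C, 5% CO2, with shaking, then given 500 μM H-Gly-Phe-AFC solution for 30 min. Fluorescence was read at 400/505 nm. % inhibition was taken against vehicle wells, and IC50 came from a four-parameter logistic fit.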

The target of the next assay is human DPP1 enzyme (Homo sapiens (Human), UniProt P53634). Description: Human DPP1 enzyme IC50 assay. The format is biochemical. The following applies: recombinant human DPP1, H-Gly-Arg-AMC substrate 400 μM. Put shortly: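 Fluorogenic readout (350/450 nm, every 5 min over 90 min, 37°C) of H-Gly-Arg-AMC cleavage at 400 μM final substrate. Compounds met activated DPP1 first for a 10-min 37°C pre-incubation in MES buffer pH 6.0 with DTT, 1% DMSO final. Four-parameter sigmoidal fit gave IC50.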

The target of another assay is active mouse DPP1 enzyme (Mus musculus (Mouse), UniProt P97821). Nature of the assay: Mouse DPP1 enzyme IC50 assay. Type of assay: biochemical. The following applies: active mouse DPP1, H-Gly-Arg-AMC substrate 400 μM. How it is done:
25 μL of compound in Assay Buffer plus 5% DMSO was first added to 50 μL of active mouse DPP1 enzyme at a concentration of 62.5 pg/μL and allowed to pre-incubate for 10 minutes at 37° C. after which 50 μL of 1000 μM H-Gly-Arg-AMC substrate (Bachem; St. Torrance, CA) was added, giving final substrate concentration of 400 μM and a final DMSO concentration of 1%. Substrate cleavage was measured for 90 minutes at 37° C., with fluorescence at Excitation/Emission 350/450 nm measured every 5 minutes. DPP1 concentration was interpolated based on its activity relative to a standard curve of recombinant active mouse DPP1 enzyme. IC50 values for each compound were calculated via the XLFit (IDBS Version 5.3.1.3) Add-On to Microsoft Excel using the four parameter fit equation y=(A+((B-A)/(1+((C/x)^D)))), which appears as equation number 205 (4 Parameter Logistic Model or Sigmoidal Dose-Response Model) in XLFit. Default constraints were used for each Parameter.

Sequence of active mouse DPP1 enzyme (P97821 25-134): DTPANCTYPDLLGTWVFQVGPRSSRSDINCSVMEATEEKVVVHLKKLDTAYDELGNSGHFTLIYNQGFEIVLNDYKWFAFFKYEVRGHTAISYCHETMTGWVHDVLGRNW
Sequence of active mouse DPP1 enzyme (P97821 231-393): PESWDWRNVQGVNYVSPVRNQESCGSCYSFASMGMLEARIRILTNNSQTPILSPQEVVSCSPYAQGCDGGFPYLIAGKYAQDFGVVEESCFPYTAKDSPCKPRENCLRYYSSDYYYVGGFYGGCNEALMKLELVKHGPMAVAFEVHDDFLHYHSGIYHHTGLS
Sequence of active mouse DPP1 enzyme (P97821 394-462): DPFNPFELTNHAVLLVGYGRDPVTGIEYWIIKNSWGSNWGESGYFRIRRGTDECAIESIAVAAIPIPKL
Sequence of human DPP1 enzyme (P53634 25-134): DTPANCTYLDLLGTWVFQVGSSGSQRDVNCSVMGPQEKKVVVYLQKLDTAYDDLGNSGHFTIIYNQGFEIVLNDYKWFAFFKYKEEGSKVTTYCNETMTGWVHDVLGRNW
Sequence of human DPP1 enzyme (P53634 231-394): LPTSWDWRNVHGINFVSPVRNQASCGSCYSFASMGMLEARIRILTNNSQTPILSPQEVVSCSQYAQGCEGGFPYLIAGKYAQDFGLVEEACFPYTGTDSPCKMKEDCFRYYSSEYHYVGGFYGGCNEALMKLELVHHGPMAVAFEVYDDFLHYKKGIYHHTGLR
Sequence of human DPP1 enzyme (P53634 395-463): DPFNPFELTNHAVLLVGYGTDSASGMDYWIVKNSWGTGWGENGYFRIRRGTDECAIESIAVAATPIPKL
Sequence of DPP1 in HL-60 cells (P53634 25-134): as the sequence (P53634 25-134) above
Sequence of DPP1 in HL-60 cells (P53634 231-394): as the sequence (P53634 231-394) above
Sequence of DPP1 in HL-60 cells (P53634 395-463): as the sequence (P53634 395-463) above

In general, IC50 refers to the concentration at which inhibition is half-maximal. With `CN(C)C[C@H](O)C(=O)N[C@H](C#N)Cc1ccc(-c2ccc3c(c2)C2(CN(C)C2)OC3=O)cc1` [Compound 137, (S)—N—((S)-1-cyano-2-(4-(1-methyl-3′-oxo-3′H-spiro[azetidine-3,1′-isobenzofuran]-6′-yl)phenyl)ethyl)-3-(dimethylamino)-2-hydroxypropanamide], the results for the IC50 on DPP1 in HL-60 cells, on human DPP1 enzyme and against active mouse DPP1 enzyme were at least 2.5 nM, at least 15 nM and at most 5 nM, respectively.
Turning to `CC(C)C(N)CC(=O)N[C@H](C#N)Cc1ccc(-c2ccc3oc(=O)n(C)c3c2)cc1` (stereo partly drawn) [Compound 164, 3-amino-N-[(1S)-1-cyano-2-[4-(3-methyl-2-oxo-2,3-dihydro-1,3-benzoxazol-5-yl)phenyl]ethyl]-4-methylpentanamide], the IC50 on DPP1 in HL-60 cells is at least 2.5 nM; on human DPP1 enzyme it was at least 15 nM; against active mouse DPP1 enzyme it was at least 20 nM.
For `Cn1c(=O)oc2ccc(-c3ccc(C[C@@H](C#N)NC(=O)C[C@H](N)Cc4cccs4)cc3)cc21` [Compound 182, (3S)-3-amino-N-[(1S)-1-cyano-2-[4-(3-methyl-2-oxo-2,3-dihydro-1,3-benzoxazol-5-yl)phenyl]ethyl]-4-(thiophen-2-yl)butanamide], in that order: at least 2.5 nM, at least 15 nM and at least 20 nM.
Consider `CN(C)C[C@H](O)C(=O)N[C@H](C#N)Cc1ccc(-c2ccc3oc(=O)n(CCN4CCOCC4)c3c2)cc1` [Compound 140, (2S)—N-[(1S)-1-cyano-2-(4-{3-[2-(morpholin-4-yl)ethyl]-2-oxo-1,3-benzoxazol-5-yl}phenyl)ethyl]-3-(dimethylamino)-2-hydroxypropanamide], for which the IC50 against DPP1 in HL-60 cells was at least 2.5 nM; on human DPP1 enzyme, at least 15 nM; against active mouse DPP1 enzyme, 5 to 20 nM.
Regarding `Cn1c(=O)oc2ccc(-c3ccc(C[C@@H](C#N)NC(=O)CC(N)C(N)=O)cc3)cc21` (some centres unmarked) [Compound 159], the results for the IC50 at human DPP1 enzyme and against active mouse DPP1 enzyme were at least 15 nM and at least 20 nM, respectively.
For the compound `Cn1c(=O)oc2ccc(-c3ccc(C[C@@H](C#N)NC(=O)C[C@H](N)Cc4ccccc4)cc3)cc21` [Compound 187], the IC50 at human DPP1 enzyme is at least 15 nM; on active mouse DPP1 enzyme it was at least 20 nM.
Take `CNCCC(=O)N[C@H](C#N)Cc1ccc(-c2ccc3oc(=O)n(C)c3c2)cc1` [Compound 156]: the half-maximal inhibitory concentration (IC50) is at least 15 nM at human DPP1 enzyme and at least 20 nM against active mouse DPP1 enzyme.
For `Cn1c(=O)oc2ccc(-c3ccc(C[C@@H](C#N)NC(=O)CCNC(=O)c4cccs4)cc3)cc21` [Compound 238, N-[(1S)-1-cyano-2-[4-(3-methyl-2-oxo-1,3-benzoxazol-5-yl)phenyl]ethyl]-3-(thiophen-2-ylformamido)propanamide], the IC50 is at least 15 nM at human DPP1 enzyme and at least 20 nM on active mouse DPP1 enzyme.
The corresponding values for `Cn1c(=O)oc2ccc(-c3ccc(C[C@@H](C#N)NC(=O)C(C)(C)CN)cc3)cc21` [Compound 155] are at least 15 nM and at least 20 nM.
`Cn1c(=O)oc2ccc(-c3ccc(C[C@@H](C#N)NC(=O)CC(N)Cc4ccccc4)cc3)cc21` (stereo partly drawn) [Compound 184, 3-amino-N-[(1S)-1-cyano-2-[4-(3-methyl-2-oxo-2,3-dihydro-1,3-benzoxazol-5-yl)phenyl]ethyl]-4-phenylbutanamide]: the 50% inhibitory concentration (IC50) at human DPP1 enzyme was at least 15 nM; on active mouse DPP1 enzyme, at least 20 nM.
For `N#Cc1ccc(-c2ccc(C[C@@H](C#N)NC(=O)C3(N)CCOCC3)c(I)c2)cc1` [Compound 248, 4-amino-N-[(1S)-1-cyano-2-{4′-cyano-3-iodo-[1,1′-biphenyl]-4-yl}ethyl]oxane-4-carboxamide], the IC50 against DPP1 in HL-60 cells is at least 2.5 nM; on human DPP1 enzyme it was at least 15 nM; at active mouse DPP1 enzyme, at least 20 nM.
Take `CC(CN)C(=O)N[C@H](C#N)Cc1ccc(-c2ccc3oc(=O)n(C)c3c2)cc1` (some centres unmarked) [Compound 161]: the half-inhibitory concentration (IC50) was at least 15 nM at human DPP1 enzyme and at least 20 nM at active mouse DPP1 enzyme.
As for `CN(C)C[C@H](O)C(=O)N[C@H](C#N)Cc1ccc(-c2ccc3oc(=O)n(C)c3c2)cc1` [Compound 101, (2S)—N-[(1S)-1-cyano-2-[4-(3-methyl-2-oxo-1,3-benzoxazol-5-yl)phenyl]ethyl]-3-(dimethylamino)-2-hydroxypropanamide], the half-maximal inhibitory concentration (IC50) on DPP1 in HL-60 cells is 1 to 2.5 nM; on human DPP1 enzyme, at least 15 nM; against active mouse DPP1 enzyme, 5 to 20 nM.
The corresponding values for `C=CCC(CN)C(=O)N[C@H](C#N)Cc1ccc(-c2ccc3oc(=O)n(C)c3c2)cc1` (stereo partly drawn) [Compound 167, 2-(aminomethyl)-N-[(1S)-1-cyano-2-[4-(3-methyl-2-oxo-2,3-dihydro-1,3-benzoxazol-5-yl)phenyl]ethyl]pent-4-enamide] are at least 2.5 nM, at least 15 nM and at least 20 nM.
The corresponding values for `CN(C)C[C@H](O)C(=O)N[C@H](C#N)Cc1ccc(-c2ccc3oc(=O)n(C)c3c2)cc1F` [Compound 138, (2S)—N-[(1S)-1-cyano-2-[2-fluoro-4-(3-methyl-2-oxo-1,3-benzoxazol-5-yl)phenyl]ethyl]-3-(dimethylamino)-2-hydroxypropanamide] are at most 1 nM, 5 to 15 nM and 5 to 20 nM.
In the case of `Cn1c(=O)oc2ccc(-c3ccc(C[C@@H](C#N)NC(=O)CCN)cc3)cc21` [Compound 157], the results for the IC50 at human DPP1 enzyme and at active mouse DPP1 enzyme were at least 15 nM and at least 20 nM, respectively.
For `Cn1c(=O)oc2ccc(-c3ccc(C[C@@H](C#N)NC(=O)C[C@@H](N)Cc4cccs4)cc3)cc21` [Compound 181], in that order: at least 15 nM and at least 20 nM.
As to `Cn1c(=O)oc2ccc(-c3ccc(C[C@@H](C#N)NC(=O)CNC(=O)c4ccco4)cc3)cc21` [Compound 240, N-[(1S)-1-cyano-2-[4-(3-methyl-2-oxo-1,3-benzoxazol-5-yl)phenyl]ethyl]-2-(furan-2-ylformamido)acetamide], the IC50 at human DPP1 enzyme was at least 15 nM; at active mouse DPP1 enzyme it was at least 20 nM.
For `Cn1c(=O)oc2ccc(-c3ccc(C[C@@H](C#N)NC(=O)CC(N)CCc4ccccc4)cc3)cc21` (some centres unmarked) [Compound 183], the IC50 at human DPP1 enzyme was at least 15 nM; against active mouse DPP1 enzyme it was at least 20 nM.
Take `C=CC[C@@H](N)CC(=O)N[C@H](C#N)Cc1ccc(-c2ccc3oc(=O)n(C)c3c2)cc1` [Compound 165, (3R)-3-amino-N-[(1S)-1-cyano-2-[4-(3-methyl-2-oxo-2,3-dihydro-1,3-benzoxazol-5-yl)phenyl]ethyl]hex-5-enamide]: the IC50 against DPP1 in HL-60 cells was at least 2.5 nM; on human DPP1 enzyme, at least 15 nM; on active mouse DPP1 enzyme it was at least 20 nM.
On to `CN[C@H](C)C(=O)N[C@H](C#N)Cc1ccc(-c2ccc3oc(=O)n(C)c3c2)cc1` [Compound 152, (R)—N—((S)-1-cyano-2-(4-(3-methyl-2-oxo-2,3-dihydrobenzo[d]oxazol-5-yl)phenyl)ethyl)-2-(methylamino)propanamide], for which the figures for the concentration for half-maximal inhibition (IC50) at human DPP1 enzyme and against active mouse DPP1 enzyme were at least 15 nM and at least 20 nM, respectively.
For `Cn1c(=O)oc2ccc(-c3ccc(C[C@@H](C#N)NC(=O)COC(=O)c4ccco4)cc3)cc21` [Compound 243, {[(1S)-1-cyano-2-[4-(3-methyl-2-oxo-1,3-benzoxazol-5-yl)phenyl]ethyl]carbamoyl}methyl furan-2-carboxylate], the IC50 on human DPP1 enzyme is at least 15 nM; at active mouse DPP1 enzyme, at least 20 nM.
In the case of `CN(C)CC(=O)N[C@H](C#N)Cc1ccc(-c2ccc3oc(=O)n(C)c3c2)cc1` [Compound 158], the IC50 at human DPP1 enzyme is at least 15 nM; on active mouse DPP1 enzyme, at least 20 nM.
Turning to `CCC(N)CC(=O)N[C@H](C#N)Cc1ccc(-c2ccc3oc(=O)n(C)c3c2)cc1` (some centres unmarked) [Compound 162], the IC50 was at least 15 nM on human DPP1 enzyme and at least 20 nM at active mouse DPP1 enzyme.
The corresponding values for `Cn1c(=O)oc2ccc(-c3ccc(C[C@@H](C#N)NC(=O)CC(N)C(F)F)cc3)cc21` (some centres unmarked) [Compound 166] are at least 15 nM and at least 20 nM.
Take `C[C@H](O)[C@@](C)(N)C(=O)N[C@H](C#N)Cc1ccc(-c2ccc3oc(=O)n(C)c3c2)cc1` [Compound 171D, (2R,3S)-2-amino-N-[(1S)-1-cyano-2-[4-(3-methyl-2-oxo-1,3-benzoxazol-5-yl)phenyl]ethyl]-3-hydroxy-2-methylbutanamide]: the IC50 on DPP1 in HL-60 cells is at least 2.5 nM; at human DPP1 enzyme, 5 to 15 nM; against active mouse DPP1 enzyme, 5 to 20 nM.
